{
  "source": "patent US11006631B2",
  "about": "“Substituted pyrimidinyloxy pyridine derivatives as herbicides” (FMC Corporation, priority 2015, dated 2021)",
  "format_in_all_cases": "in vivo",
  "key": {"[1]": {"test_system": "ryegrass, Italian (Italian ryegrass, Lolium multiflorum)", "assay": "Test C postemergence, ryegrass, Italian", "source_text": "(§1) Seeds of plant species selected from blackgrass (Alopecurus myosuroides), ryegrass, Italian (Italian ryegrass, Lolium multiflorum), wheat (winter wheat, Triticum aestivum), galium (catchweed bedstraw, Galium aparine), corn (Zea mays), crabgrass, large (large crabgrass, Digitaria sanguinalis), foxtail, giant (giant foxtail, Setaria faberii), lambsquarters (Chenopodium album), morningglory (Ipomoea coccinea), nutsedge, yellow (yellow nutsedge, Cyperus esculentus), pigweed (Amaranthus retroflexus), johnsongrass (Sorghum halepense), ragweed (common ragweed, Ambrosia elatior), soybean (Glycine max), barnyardgrass (Echinochloa crus-galli), oilseed rape (Brassica napus), waterhemp (common waterhemp, Amaranthus rudis), chickweed (common chickweed, Stellaria media), oat, wild (wild oat, Avena fatua), kochia (Kochia scoparia), and velvetleaf (Abutilon theophrasti) were planted in pots containing Redi-Earth® planting medium (Scotts Company, 14111 Scottslawn Road, Marysville, Ohio 43041) comprising spaghnum peat moss, vermiculite, wetting agent and starter nutrients and treated with postemergence applications of a test chemical formulated in a non-phytotoxic solvent mixture which included a surfactant. Plants ranged in height from 2 to 18 cm (1- to 4-leaf stage) for postemergence treatments. Treated plants and controls were maintained in a greenhouse for 13 to 15 days, after which time all species were compared to controls and visually evaluated. Plant response ratings, summarized in Table C, are based on a scale of 0 to 100 where 0 is no effect and 100 is complete control. A dash (-) response means no test result."}, "[2]": {"test_system": "blackgrass (Alopecurus myosuroides)", "assay": "Test C postemergence, blackgrass", "source_text": "as §1"}, "[3]": {"test_system": "pigweed (Amaranthus retroflexus)", "assay": "Test A preemergence, pigweed", "details": "0 to 100 scale", "outline": "(§2)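 Plants are sown in a loam soil and sand blend, then treated with formulated compound either preemergence by directed soil spray or postemergence at one- to two-leaf stage. After approximately 10 days, injury is judged visually against untreated controls using a 0 to 100 control scale.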"}, "[4]": {"test_system": "crabgrass, large (large crabgrass, Digitaria sanguinalis)", "assay": "Test C postemergence, crabgrass, large", "source_text": "as §1"}, "[5]": {"test_system": "wheat (winter wheat, Triticum aestivum)", "assay": "Test C postemergence, wheat", "source_text": "as §1, with “Plants ranged in height from 2 to 18 cm (1- to 4-leaf stage) for postemergence treatments.” left out, “Plant response ratings, summarized in Table C, are based on a scale of 0 to 100 where 0 is no effect and 100 is complete control. A dash (-) response means no test result.” left out"}, "[6]": {"test_system": "blackgrass (Alopecurus myosuroides)", "assay": "Test A postemergence, blackgrass", "details": "0 to 100 scale", "source_text": "(§3) Seeds of plant species selected from bamyardgrass (Echinochloa crus-galli), kochia (Kochia scoparia), ragweed (common ragweed, Ambrosia elatior), ryegrass, Italian (Italian ryegrass, Lolium multiflorum), foxtail, giant (giant foxtail, Setaria faberii), pigweed (Amaranthus retroflexus), crabgrass, large (large crabgrass, Digitaria sanguinalis), momingglory (Ipomoea spp.), velvetleaf (Abutilon theophrasti), wheat (Triticum aestivum), and corn (Zea mays) were planted into a blend of loam soil and sand and treated preemergence with a directed soil spray using test chemicals formulated in a non-phytotoxic solvent mixture which included a surfactant. At the same time, plants selected from these crop and weed species and also blackgrass (Alopecurus myosuroides), and galium (catchweed bedstraw, Galium aparine) were planted in pots containing the same blend of loam soil and sand and treated with postemergence applications of test chemicals formulated in the same manner. Plants ranged in height from 2 to 10 cm and were in the one- to two-leaf stage for the postemergence treatment. Treated plants and untreated controls were maintained in a greenhouse for approximately 10 days, after which time all treated plants were compared to untreated controls and visually evaluated for injury. Plant response ratings, summarized in Table A, are based on a 0 to 100 scale where 0 is no effect and 100 is complete control. A dash (-) response means no test result."}, "[7]": {"test_system": "ducksalad (Heteranthera limosa)", "assay": "Test B flooded paddy test, ducksalad", "details": "Flood, 250 g ai/ha; scale of 0 to 100", "outline": "(§4)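 First, plants reach the 2-leaf stage; next, pots are flooded to 3 cm and compound is delivered into the water; finally, after 13 to 15 greenhouse days at constant depth, injury is graded visually from 0 to 100 against controls.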"}, "[8]": {"test_system": "pigweed (Amaranthus retroflexus)", "assay": "Test C postemergence, pigweed", "source_text": "as §1"}, "[9]": {"test_system": "ragweed (common ragweed, Ambrosia elatior)", "assay": "Test C postemergence, ragweed", "source_text": "as §1"}, "[10]": {"test_system": "oilseed rape (Brassica napus)", "assay": "Test C postemergence, oilseed rape", "source_text": "as §1"}, "[11]": {"test_system": "ragweed (common ragweed, Ambrosia elatior)", "assay": "Test A preemergence, ragweed", "details": "0 to 100 scale", "source_text": "as §3"}, "[12]": {"test_system": "foxtail, giant (giant foxtail, Setaria faberii)", "assay": "Test A preemergence, foxtail, giant", "details": "0 to 100 scale", "outline": "as §2"}, "[13]": {"test_system": "ragweed (common ragweed, Ambrosia elatior)", "assay": "Test A postemergence, ragweed", "details": "0 to 100 scale", "source_text": "as §3"}, "[14]": {"test_system": "nutsedge, yellow (yellow nutsedge, Cyperus esculentus)", "assay": "Test C postemergence, nutsedge, yellow", "source_text": "as §1"}, "[15]": {"test_system": "sedge, umbrella (small-flower umbrella sedge, Cyperus difformis)", "assay": "Test B flooded paddy test, sedge, umbrella", "details": "Flood, 250 g ai/ha; scale of 0 to 100", "outline": "as §4"}, "[16]": {"test_system": "oat, wild (wild oat, Avena fatua)", "assay": "Test C postemergence, oat, wild", "source_text": "as §1"}, "[17]": {"test_system": "barnyardgrass (Echinochloa crus-galli)", "assay": "Test A preemergence, barnyardgrass", "details": "0 to 100 scale", "outline": "as §2"}, "[18]": {"test_system": "galium (catchweed bedstraw, Galium aparine)", "assay": "Test A postemergence, galium", "details": "0 to 100 scale", "source_text": "as §3"}, "[19]": {"test_system": "foxtail, giant (giant foxtail, Setaria faberii)", "assay": "Test A postemergence, foxtail, giant", "details": "0 to 100 scale", "outline": "as §2"}},
  "data": [
    {"compound": "FC(F)c1cc(-c2ncccc2Oc2ncc(Cl)cn2)on1", "note": "[Compound 5, 5-chloro-2-[[2-[3-(difluoromethyl)-5-isoxazolyl]-3-pyridinyl]oxy]pyrimidine]", "values": [
      {"measurement": "Plant response rating, Ryegrass, Italian", "setting": "[1]; 16 g ai/ha", "result": 0},
      {"measurement": "Plant response rating, Ryegrass, Italian", "setting": "[1]; 31 g ai/ha", "result": 5},
      {"measurement": "Plant response rating, Ryegrass, Italian", "setting": "[1]; 62 g ai/ha", "result": 0},
      {"measurement": "Plant response rating, Ryegrass, Italian", "setting": "[1]; 125 g ai/ha", "result": 5},
      {"measurement": "Plant response rating, Blackgrass", "setting": "[2]; 16 g ai/ha", "result": 0},
      {"measurement": "Plant response rating, Blackgrass", "setting": "[2]; 31 g ai/ha", "result": 0},
      {"measurement": "Plant response rating, Blackgrass", "setting": "[2]; 62 g ai/ha", "result": 0},
      {"measurement": "Plant response rating, Blackgrass", "setting": "[2]; 125 g ai/ha", "result": 5},
      {"measurement": "Plant response rating, Pigweed", "setting": "[3]; 31 g ai/ha", "result": 80},
      {"measurement": "Plant response rating, Pigweed", "setting": "[3]; 125 g ai/ha", "result": 100},
      {"measurement": "Plant response rating, Crabgrass, Large", "setting": "[4]; 16 g ai/ha", "result": 10},
      {"measurement": "Plant response rating, Crabgrass, Large", "setting": "[4]; 31 g ai/ha", "result": 15},
      {"measurement": "Plant response rating, Crabgrass, Large", "setting": "[4]; 62 g ai/ha", "result": 15},
      {"measurement": "Plant response rating, Crabgrass, Large", "setting": "[4]; 125 g ai/ha", "result": 15},
      {"measurement": "Plant response rating, Wheat", "setting": "[5]; 16 g ai/ha", "result": 5},
      {"measurement": "Plant response rating, Wheat", "setting": "[5]; 31 g ai/ha", "result": 5},
      {"measurement": "Plant response rating, Blackgrass", "setting": "[6]; 31 g ai/ha", "result": 0},
      {"measurement": "Plant response rating, Blackgrass", "setting": "[6]; 125 g ai/ha", "result": 20},
      {"measurement": "Plant response rating, Ducksalad", "setting": "[7]", "result": 75},
      {"measurement": "Plant response rating, Pigweed", "setting": "[8]; 16 g ai/ha", "result": 65},
      {"measurement": "Plant response rating, Pigweed", "setting": "[8]; 31 g ai/ha", "result": 75},
      {"measurement": "Plant response rating, Pigweed", "setting": "[8]; 62 g ai/ha", "result": 75},
      {"measurement": "Plant response rating, Pigweed", "setting": "[8]; 125 g ai/ha", "result": 85},
      {"measurement": "Plant response rating, Ragweed", "setting": "[9]; 16 g ai/ha", "result": 5},
      {"measurement": "Plant response rating, Ragweed", "setting": "[9]; 31 g ai/ha", "result": 40},
      {"measurement": "Plant response rating, Ragweed", "setting": "[9]; 62 g ai/ha", "result": 35},
      {"measurement": "Plant response rating, Ragweed", "setting": "[9]; 125 g ai/ha", "result": 65},
      {"measurement": "Plant response rating, Oilseed Rape", "setting": "[10]; 16 g ai/ha", "result": 5},
      {"measurement": "Plant response rating, Oilseed Rape", "setting": "[10]; 31 g ai/ha", "result": 60},
      {"measurement": "Plant response rating, Oilseed Rape", "setting": "[10]; 62 g ai/ha", "result": 60},
      {"measurement": "Plant response rating, Oilseed Rape", "setting": "[10]; 125 g ai/ha", "result": 85},
      {"measurement": "Plant response rating, Ragweed", "setting": "[11]; 31 g ai/ha", "result": 0},
      {"measurement": "Plant response rating, Ragweed", "setting": "[11]; 125 g ai/ha", "result": 10},
      {"measurement": "Plant response rating, Foxtail, Giant", "setting": "[12]; 31 g ai/ha", "result": 10},
      {"measurement": "Plant response rating, Foxtail, Giant", "setting": "[12]; 125 g ai/ha", "result": 80},
      {"measurement": "Plant response rating, Ragweed", "setting": "[13]; 31 g ai/ha", "result": 20},
      {"measurement": "Plant response rating, Ragweed", "setting": "[13]; 125 g ai/ha", "result": 60},
      {"measurement": "Plant response rating, Nutsedge, Yellow", "setting": "[14]; 16 g ai/ha", "result": 0},
      {"measurement": "Plant response rating, Nutsedge, Yellow", "setting": "[14]; 31 g ai/ha", "result": 10},
      {"measurement": "Plant response rating, Nutsedge, Yellow", "setting": "[14]; 62 g ai/ha", "result": 5},
      {"measurement": "Plant response rating, Nutsedge, Yellow", "setting": "[14]; 125 g ai/ha", "result": 5},
      {"measurement": "Plant response rating, Sedge, Umbrella", "setting": "[15]", "result": 80},
      {"measurement": "Plant response rating, Oat, Wild", "setting": "[16]; 16 g ai/ha", "result": 0},
      {"measurement": "Plant response rating, Oat, Wild", "setting": "[16]; 31 g ai/ha", "result": 0},
      {"measurement": "Plant response rating, Oat, Wild", "setting": "[16]; 62 g ai/ha", "result": 0},
      {"measurement": "Plant response rating, Oat, Wild", "setting": "[16]; 125 g ai/ha", "result": 5},
      {"measurement": "Plant response rating, Barnyardgrass", "setting": "[17]; 31 g ai/ha", "result": 0},
      {"measurement": "Plant response rating, Barnyardgrass", "setting": "[17]; 125 g ai/ha", "result": 20},
      {"measurement": "Plant response rating, Galium", "setting": "[18]; 31 g ai/ha", "result": 40},
      {"measurement": "Plant response rating, Galium", "setting": "[18]; 125 g ai/ha", "result": 60},
      {"measurement": "Plant response rating, Foxtail, Giant", "setting": "[19]; 31 g ai/ha", "result": 0},
      {"measurement": "Plant response rating, Foxtail, Giant", "setting": "[19]; 125 g ai/ha", "result": 10}
    ]}
  ]
}
